How the values were obtained:
Sgx9236b [1] = assay: direct UV assay of deamination, […] nm; assay type: biochemical, Unknown prokaryotic organism (Sargasso Sea metagenome); settings: pH 8.5, 30 °C
Sgx9236b [2] = assay: direct UV assay of deamination, […] nm; assay type: biochemical, Unknown prokaryotic organism (Sargasso Sea metagenome); settings: pH 8.5, 30 °C; remark: listed apart in the source

Nc1nc2[nH]c(=O)cnc2c(=O)[nH]1 [I, isoxanthopterin]
Km (Sgx9236b [1]): 50 ± 10 µM

Nc1nc2ncc(C(=O)O)nc2c(=O)[nH]1 [II, pterin-6-carboxylate]
Km (Sgx9236b [2]): 90 ± 30 µM

Reference: PMC2892419 (Biochemistry, 2010)
